In patent US20140357512A1, “HISTONE DEACETYLASE (HDAC) BIOMARKERS IN MULTIPLE MYELOMA” (priority 2013, published 2014):

Test system: human myeloma cell line MM.1S
Assay: SILAC acetylated-lysine peptide profiling, HDAC inhibitor vs DMSO (light/heavy ratio)
Format: cell-based
From the text: An embodiment of the invention comprises utilizing the SILAC method in order to quantitate changes in protein expression between two or more populations of cells. The SILAC method is a technique based on mass spectrometry that detects differences in protein abundance among samples using non-radioactive isotopic labeling. The SILAC method is known in the art, and described in detail in Ong et al., “Stable Isotope Labeling by Amino Acids in Cell Culture, SILAC, as a Simple and Accurate Approach to Expression Proteomics”, Molecular & Cellular Proteomics, vol. 1, pp. 376-386 (2002), which is incorporated herein by reference in its entirety.
Briefly, the SILAC method involves growing two populations of cells in cell culture. The first population of cells is grown in growth media containing normal amino acids (“normal media”). The second population of cells is grown in media lacking a standard essential amino acid (such as lysine), but is then supplemented with a non-radioactive, isotopically labeled form of that essential amino acid (such as lysine labeled with ^13C atoms, rather than normal ^12C atoms), which is called “heavy media”. When the two populations of cells are each growing in the medium, they incorporate the amino acids into all of their proteins. The growth of cells maintained in the heavy media is no different from that in normal media. All peptides containing the heavy amino acids are heavier than their normal counterparts. The cells from each of the two populations of cells are lysed. The lysates from each of the two cell populations are then combined. The combined cell lysates are then analyzed by mass spectrometry. Pairs of chemically identical peptides of different stable isotope composition can be differentiated in a mass spectrometer due to their difference in mass. The ratio of peak intensities in the mass spectrum for such peptide pairs reflects the abundance ratio for the two proteins.
This example describes SILAC studies that were performed to compare the effects of three different HDAC inhibitors (Compound A, Compound B, and tubastatin A) to a control on a human multiple myeloma cell line. The HDAC inhibitors were also compared amongst themselves to determine differences in their effects.
A human myeloma cell line MM.1S was grown using either ^12C (light) or ^13C (heavy) lysine containing culture medium. The “heavy” cells were treated with DMSO as the control, and the “light” cells were treated with a single HDAC inhibitor at 37° C. for 6 hours. The heavy and light cells were lysed, and the lysates were mixed in 1:1 ratio and digested with the protease trypsin. The acetylated lysine containing peptides (due to the action of the HDAC inhibitor) in the digested peptide pool were captured by a non-specific anti-acetylated lysine antibody cocktail (the antibodies identify both light and heavy acetylated peptides), and subjected to mass spectrometry analysis in order to identify thousands of individual peptides.
Thousands of peptides were identified in pairs (^12C and ^13C) due to their known mass differences. The amino acid sequence and quantitative ratio (Light/Heavy) of a given peptide in two differentially treated cell lysates were then determined and annotated with their possible protein (gene) sources.
As stated above, three HDAC inhibitors (Compound A, Compound B, and Tubastatin A) were used. Thus, the SILAC method was performed three times, with a different HDAC inhibitor compared to a control each time. Accordingly, there are three pairs of quantitative data in the table below, i.e., Compound A:DMSO, Compound B:DMSO, and Tubastatin A:DMSO. A cut-off of 1.30 fold of change (increase or decrease) was then used to determine “changed” or “+” in the table, and any peptides with a fold of change less than 1.3 fold were determined to be “unchanged” or “0” in the table. Those peptides that were not identified were marked as “NA” in the table. […]

## O=C(CCCCCCNC(=O)c1cnc(N(c2ccccc2)c2ccccc2)nc1)NO [Compound A, 2-(diphenylamino)-N-(7-(hydroxyamino)-7-oxoheptyl)pyrimidine-5-carboxamide]
Prohibitin [202], PHB, drug:DMSO
  light to heavy ratio (L/H ratio) of acetylated peptide FVVEK(ac)AEQQK (SEQ ID NO: 263): 0.42 log 2
Proteasomal ubiquitin receptor ADRM1 [97], gene ADRM1, inhibitor:DMSO
  light to heavy ratio (L/H ratio) of acetylated peptide VYVLK(ac)FK (SEQ ID NO: 520): −0.50 log 2
Protein ERGIC-53 [49], LMAN1, drug:DMSO
  light to heavy ratio (L/H ratio) of acetylated peptide FEYK(ac)YSFK (SEQ ID NO: 340): 0.00 log 2
Protein FAM3C [72], gene FAM3C, inhibitor:DMSO
  light to heavy ratio (L/H ratio) of acetylated peptide HFAFK(ac)[…] (SEQ ID NO: 554): 0.40 log 2
Protein Jade-3 [735], gene PHF16, drug:DMSO
  light to heavy ratio (L/H ratio), log 2 scale, acetylated peptide […](ac)PTK (SEQ ID NO: 804): 1.00
Protein disulfide-isomerase A4 [109], gene PDIA4, drug:DMSO
  light to heavy ratio (L/H ratio), log 2 scale, acetylated peptide IANILK(ac)[…] (SEQ ID NO: 803): 1.00
Protein disulfide-isomerase [103], gene P4HB, inhibitor:DMSO
  light to heavy ratio (L/H ratio) of acetylated peptide GYPTIK(ac)FFR (SEQ ID NO: 541): 0.39 log 2
Protein disulfide-isomerase [263], P4HB, drug:DMSO
  light to heavy ratio (L/H ratio) of acetylated peptide THILLFLPK(ac)SVSDYDGK (SEQ ID NO: 297): 0.75 log 2
Protein disulfide-isomerase [375], P4HB, drug:DMSO
  light to heavy ratio (L/H ratio) of acetylated peptide VLVGK(ac)[…] (SEQ ID NO: 303): 0.99 log 2
Protein disulfide-isomerase [385], P4HB, drug:DMSO
  light to heavy ratio (L/H ratio) of acetylated peptide […](ac)K (SEQ ID NO: 286): 0.62 log 2
Putative annexin A2-like protein [148], gene ANXA2P2, drug:DMSO
  light to heavy ratio (L/H ratio), log 2 scale, acetylated peptide VYK(ac)EMYK (SEQ ID NO: 777): 1.00
Putative annexin A2-like protein [227], gene ANXA2P2, drug:DMSO
  light to heavy ratio (L/H ratio), log 2 scale, acetylated peptide SVPHLQK(ac)VFDR (SEQ ID NO: 776): 1.00
Putative annexin A2-like protein [302], ANXA2P2, drug:DMSO
  light to heavy ratio (L/H ratio) of acetylated peptide SEVDMLK(ac)IR (SEQ ID NO: 295): 0.71 log 2
Pyruvate dehydrogenase E1 component subunit alpha testis-specific form mitochondrial [75], PDHA2, drug:DMSO
  light to heavy ratio (L/H ratio) of acetylated peptide RMELK(ac)ADQLYK (SEQ ID NO: 275): 0.51 log 2
RAC2 [153], log 2 scale, drug vs DMSO
  L/H ratio of acetylated peptide EIDSVK(ac)[…] (SEQ ID NO: 73): 0.00
RBBP4 [4], log 2 scale, drug vs DMSO
  L/H ratio of acetylated peptide (ac)ADK(ac)[…] (SEQ ID NO: 74): 0.00
RBM17 [391], log 2 scale, drug vs DMSO
  L/H ratio of acetylated peptide ACFYNLDK(ac)FR (SEQ ID NO: 75): 0.00
RCC1 [366], log 2 scale, drug vs DMSO
  L/H ratio of acetylated peptide […](ac)SIPTLISR (SEQ ID NO: 76): 0.00
RPL3L [373], log 2 scale, drug vs DMSO
  L/H ratio of acetylated peptide FIDTTSK(ac)FGHGR (SEQ ID NO: 83): 0.00
RPL4 [239], log 2 scale, drug vs DMSO
  L/H ratio of acetylated peptide LNILK(ac)LAPGGHVGR (SEQ ID NO: 85): 0.00
RPL4 [274], log 2 scale, drug vs DMSO
  L/H ratio of acetylated peptide AASLK(ac)SNYNLPMHK (SEQ ID NO: 84): 0.00
RPL9 [121], log 2 scale, drug vs DMSO
  L/H ratio of acetylated peptide NFLGEK(ac)YIR (SEQ ID NO: 86): 0.00
RPL11 [154], log 2 scale, drug vs DMSO
  L/H ratio of acetylated peptide TGCIGAK(ac)HR (SEQ ID NO: 77): 0.00
RPL11 [169], log 2 scale, drug vs DMSO
  L/H ratio of acetylated peptide WFQQK(ac)YDGIILPGK (SEQ ID NO: 78): 0.00
RPL18A [41], log 2 scale, drug vs DMSO
  L/H ratio of acetylated peptide […](ac)SR (SEQ ID NO: 79): 0.00
RPL21, SNORD102, SNORA27, RPL21P19 [97], log 2 scale, drug vs DMSO
  L/H ratio of acetylated peptide IEHIK(ac)HSK (SEQ ID NO: 80): 0.00
RPL22 [84], log 2 scale, drug vs DMSO
  L/H ratio of acetylated peptide YLK(ac)YLTK (SEQ ID NO: 81): 0.00
RPL27A [47], log 2 scale, drug vs DMSO
  L/H ratio of acetylated peptide INFDK(ac)YHPGYFGK (SEQ ID NO: 82): 0.00
RPPQTIK(ac)SVR (SEQ ID NO: 492), GDP-D-glucose phosphorylase C15orf58 [113], C15orf58
  L/H ratio of acetylated peptide: −1.00 log 2
RPS4X [53], log 2 scale, drug vs DMSO
  L/H ratio of acetylated peptide LK(ac)[…] (SEQ ID NO: 89): 0.00
RPS7 [74], log 2 scale, drug vs DMSO
  L/H ratio of acetylated peptide SFQK(ac)IQVR (SEQ ID NO: 90): 0.00
RPS9 [66], log 2 scale, drug vs DMSO
  L/H ratio of acetylated peptide ELLTLDEK(ac)DPR (SEQ ID NO: 91): 0.00
RPS9 [116], log 2 scale, drug vs DMSO
  L/H ratio of acetylated peptide LQTQVFK(ac)LGLAK (SEQ ID NO: 92): 0.00
RPS23 [135], log 2 scale, drug vs DMSO
  L/H ratio of acetylated peptide […](ac)GK (SEQ ID NO: 87): 0.00
RPS27A [104], log 2 scale, drug vs DMSO
  L/H ratio of acetylated peptide LAVLK(ac)YYK (SEQ ID NO: 88): 0.00
Ribosomal L1 domain-containing protein 1 [120], gene RSL1D1, inhibitor:DMSO
  light to heavy ratio (L/H ratio) of acetylated peptide LLNK(ac)HGIK (SEQ ID NO: 528): −0.43 log 2
